{"source": "patent US20250275993A1", "about": "“GLYCOSYLATION INHIBITORS AS THERAPEUTICS FOR STROKE” (The Regents of the University of California, priority 2022, published 2025)", "key": {"[1]": {"system": "VEGF, VEGFR2 and GLUT1 & 4", "test": "Gene expression analysis by real-time Q PCR in BCECs", "assay_type": "cell-based, bovine", "conditions": "various concentrations of ManN; 4 hours (gene) or 24 hours (protein)", "method": "RNA was prepared using the RNeasy Mini Kit (Qiagen). Fifty ng of total RNA per reaction was used for the real-time PCR (Taqman) analysis. Reactions were set up in MicroAmp Fast Optical 96-well reaction plate, seal with MicroAmp optical Adhesion film and run on ViiA7 Real time PCR system (Applied Biosystems) and the absolute quantification with standard curve was used with Sequence Detection System (SDS) software. The expression level of each gene was further quantified relative to the housekeeping gene RPL19 in the same sample. Taqman primers and probe mixes were obtained from Thermo Fisher Scientific. Bovine VEGF-A (Bt03213282), bovine RPL19 (Bt03229687) and bovine specific VEGFR2 (Bt03258877), GLUT1 (Bt03215313) and GLUT4 (Bt03215316)."}, "[2]": {"system": "HUVEC", "test": "HUVEC scratch assay", "assay_type": "cell-based, human", "conditions": "40 μM ManN in combination with 50 ng/ml VEGF", "method": "BCECs (passage 6-10) and HUVEC (passage 6-8) were used in this assay.\nCells were grown until about 80% confluency in 6-well plates, washed twice with PBS and then starved in serum-free DMEM (low Glucose, Hyclone) for 5 hrs before making a “scratch” using 1 ml tip. Cell monolayers were briefly washed once with serum-free media, followed by various treatments in media containing 1% FBS. 48 hrs later, the assay was stopped by adding 2 ml 4% paraformaldehyde. 20 min later, fixed cells were stained with 1 ml Crystal Violet (Sigma). Plates were washed gently under the running tap water and air-dried before taking pictures. Images were acquired by ZEISS Discovery V8 SteREO microscopy equipped with PixeLINK Megapixel FireWire camera. Quantification of wound closure was done using AxioVision LE Rel.4.4 software. Six images were taken for each sample and six measurements (in pixel) were made on each image using AxioVision LE Re1.4.4 software."}, "[3]": {"system": "N-linked glycans from BCECs", "test": "N-glycan analysis of BCECs", "assay_type": "cell-based, bovine", "method": "As soon as BCECs reached about 80% confluency, they were washed twice with phosphate buffered saline (PBS, Sigma) and harvested by scraping. The cells were pelleted by centrifugation at 300 g for 3 mins and washed once with cold PBS. Cells were homogenized and total protein was measured. All subsequent analysis was based on known protein amount.\nN-linked glycans were removed from glycoprotein samples using PNGase-F kit (New England BioLabs, P0705S). Briefly, 300 μg of protein sample was reconstituted in 180 μl UltraPure water. 20 μl of 10× denaturing buffer was added and boiled using 100° C. water bath for 14 mins. Samples were cooled down to room temperature and centrifuged at 2700 g for 1 min. Subsequently, 50 μl 10×NP-40 was added and samples were kept at room temperature for 30 mins with vortexing at 5 min interval, followed by adding 25 μL of 10× reaction buffer and mixing thoroughly. 5 μl PNGaseF (2500 U) was then added to the samples and mixed gently. Samples were incubated at 37° C. for 16 hrs. Released N-glycans were purified using solid phase extraction method. […] The data was collected using the Dionex ICS-3000 HPLC system with Ultimate 3000 fluorescence detector (Dionex) set at Acx 330 nm at Atm 420 nm with sensitivity 7. […]"}, "[4]": {"system": "HUVEC", "test": "HUVEC proliferation assay", "assay_type": "cell-based, human", "method": "Proliferation assays with BCECs and BRECs were performed. Log-phase growing BCECs or BRECs (passage <10) were trypsinized, re-suspended and seeded in 96-well plates (no coating) in low-glucose DMEM supplemented with 10% bovine calf serum, 2 mM glutamine, and antibiotics (growth medium), at a density of 1200-1500 cells per well in 200 μl volume. All reagents were added at the indicated final concentrations. After 3-6 days, cells were incubated with AlamarBlue for 4 hrs. Fluorescence was measured at 530 nm excitation wavelength and 590 nm emission wavelength. The experiments were repeated at least three times. To create a hypoxic condition, cells were placed in a hypoxia incubator with a mixture of gas consisting of 1% O2, 5% CO2 and 94% N2. On each 96-well plate, untreated and VEGF-treated (10/ng/ml) wells were included to monitor plate-to-plate variations. 20% methanol or 0.05% DMSO served as negative controls. […] Human RMVECs and human adult DMVECs were split into Gelatin-coated 96 wells (2000 cells per well) in low glucose DMEM containing 10% FBS. 1200 cells/well was set up for proliferation assay in low glucose media containing 0.5% FBS. Data was collected at day 4 or 5. HUVEC (p7-10) were grown on gelatin-coated plate until it reached 70-80% confluency.\nOn the day of the assay, cells were dissociated with 0.05% trypsin, which was neutralized with 0.5% FBS-containing EBM. Cells were briefly spun and then re-suspended in 0.5% FBS-media. Cells were counted and plated in 96-well, 1000 cells/well. Triplicate wells were used for each treatment. Data were collected at day 3, and then cells were fixed in 4% paraformaldehyde for 15 min before adding crystal violet. Cell-covered areas were quantified after taking pictures by Image J software."}}}
{"smiles": "N[C@H](C=O)[C@@H](O)[C@H](O)[C@H](O)CO", "note": "[ManN, 2-Amino-2-deoxy-D-mannose]", "values": [{"measurement": "transcription of VEGF, VEGFR2, GLUT1 & 4 and total VEGFR2 protein expression", "setting": "[1]", "value": "neither transcription of VEGF, VEGFR2 and GLUT] & 4 nor total VEGFR2 protein expression was significantly changed"}, {"measurement": "HUVEC wound closure", "setting": "[2]", "value": "stimulation of migration and wound closure"}, {"measurement": "Man-5 and Man-7 content", "setting": "[3]; 40 μM ManN", "value": "significant early phase accumulation"}, {"measurement": "Man-6, Man-8 and Man-9 in total oligomannose N-glycan content", "setting": "[3]; 40 μM ManN vs untreated control", "value": "significant time-dependent reduction"}, {"measurement": "toxicity on HUVEC", "setting": "[4]; 5 mM ManN", "value": "minimal toxicity"}, {"measurement": "HUVEC growth, ManN by itself", "setting": "[4]; ManN alone", "value": "stimulated"}, {"measurement": "additivity with VEGF on HUVEC proliferation", "setting": "[4]; with VEGF", "value": "dose-dependent additivity with VEGF"}]}
